In patent US20170056496A1 (Sanofi, priority 2008, published 2017):
Like-named read-outs stand apart in the source and are kept apart here.

What was measured:
[1] = for Comments: toxicity statement: toxicity = ≧20% body weight loss or 10% drug death
[2] = target: T1, murine CD38 (Mus musculus, UniProt P56528); experiment: Cross-reactivity of the antibody with murine CD38; assay type: binding
T1 sequence (P56528 1-304): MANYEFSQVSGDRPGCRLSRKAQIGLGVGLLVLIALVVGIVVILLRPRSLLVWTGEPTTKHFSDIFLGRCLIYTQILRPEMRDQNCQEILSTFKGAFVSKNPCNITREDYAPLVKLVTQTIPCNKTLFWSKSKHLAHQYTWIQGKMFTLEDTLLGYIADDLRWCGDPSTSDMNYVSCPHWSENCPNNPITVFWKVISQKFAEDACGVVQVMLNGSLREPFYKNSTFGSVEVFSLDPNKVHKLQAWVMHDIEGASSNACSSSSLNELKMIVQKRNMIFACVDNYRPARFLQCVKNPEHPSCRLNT

[3] = CPA alone, 286.1 mg/kg/inj (total 572.2), listed as CPA, 286.1 mg/kg

Compound | deaths (deaths out of mice) [1, 3] | Comments: toxicity statement ([1]; CPA alone, 286.1 mg/kg/inj (total 572.2), 286.1 mg/kg) | Comments: toxicity statement [1, 3] | deaths, percent of mice ([1]; CPA alone, 286.1 mg/kg/injection) [%] | % BWC at nadir (day) ([1]; CPA alone, IV day 11, 15, 68.2 mg/kg/inj (total 136.4), nadir day 18) | % BWC at nadir (day) ([1]; CPA alone, IV day 11, 15, 110.0 mg/kg/inj (total 220.0), nadir day 17) | % BWC at nadir (day) ([1]; CPA alone, IV day 11, 15, 286.1 mg/kg/inj (total 572.2), nadir day 20) | Comments: toxicity statement (HNTD = highest nontoxic dose) ([1]; CPA alone, […] (total 354.8)) | cross-reactivity with murine CD38 [2] | % BWC at nadir (day) ([1]; mouse, in vivo, iv, 40 mg/kg)
O=P1(N(CCCl)CCCl)NCCCO1 (stereo not shown) [cyclophosphamide] | ⅗ | Toxicity | Toxic | 60 | −3.8 (18) % | −5.2 (17) % | −21.2 (20) % | HNTD |  | 
hu38SB19: humanized anti-CD38 monoclonal antibody 38SB19; VH SEQ ID NO: 66, VL chosen from SEQ ID NOS: 62 and 64 |  |  |  |  |  |  |  |  | lack of cross-reactivity | +5.4 (19) %
